{"source": "patent US10828316B2", "about": "“Method of treating bacterial infections” (priority 2016, dated 2020)", "key": {"S. aureus strain no 13": {"system": "S. aureus strain no 13", "experiment": "MIC", "details": "Staphylococcus aureus, NO13, read-out: MIC of trimethoprim only"}, "E. coli ATCC 25922": {"system": "E. coli ATCC 25922", "experiment": "MIC, in vitro sensitivity of the strain used in vivo", "details": "Escherichia coli"}, "P. aeruginosa EN0459": {"system": "P. aeruginosa EN0459", "experiment": "MIC", "format": "cell-based, Pseudomonas aeruginosa", "details": "in FdUrd+trimethoprim+uridine combination"}, "K. pneumoniae EN0244": {"system": "K. pneumoniae EN0244", "experiment": "MIC", "format": "cell-based", "details": "in FdUrd+trimethoprim+uridine combination"}, "E. coli EN0136": {"system": "E. coli EN0136", "experiment": "MIC", "format": "cell-based", "details": "in FdUrd+trimethoprim+uridine combination"}, "P. aeruginosa EN0460": {"system": "P. aeruginosa EN0460", "experiment": "MIC", "format": "cell-based, Pseudomonas aeruginosa", "details": "in FdUrd+trimethoprim+uridine combination"}, "K. pneumoniae EN0437": {"system": "K. pneumoniae EN0437", "experiment": "MIC", "format": "cell-based", "details": "in FdUrd+trimethoprim+uridine combination"}, "K. pneumoniae EN0144": {"system": "K. pneumoniae EN0144", "experiment": "MIC", "format": "cell-based", "details": "in FdUrd+trimethoprim+uridine combination"}, "E. coli EN0138": {"system": "E. coli EN0138", "experiment": "MIC", "format": "cell-based", "details": "in FdUrd+trimethoprim+uridine combination"}, "K. pneumoniae EN0143": {"system": "K. pneumoniae EN0143", "experiment": "MIC", "format": "cell-based", "details": "in FdUrd+trimethoprim+uridine combination"}, "P. aeruginosa EN0422": {"system": "P. aeruginosa EN0422", "experiment": "MIC", "format": "cell-based, Pseudomonas aeruginosa", "details": "in FdUrd+trimethoprim+uridine combination"}, "E. coli EN0135": {"system": "E. coli EN0135", "experiment": "MIC", "format": "cell-based", "details": "in FdUrd+trimethoprim+uridine combination"}, "A. baumannii EN007": {"system": "A. baumannii EN007", "experiment": "MIC", "format": "cell-based, Acinetobacter baumannii", "details": "in FdUrd+trimethoprim+uridine combination"}, "P. aeruginosa EN005": {"system": "P. aeruginosa EN005", "experiment": "MIC", "format": "cell-based, Pseudomonas aeruginosa", "details": "in FdUrd+trimethoprim+uridine combination"}, "P. aeruginosa EN004": {"system": "P. aeruginosa EN004", "experiment": "MIC", "format": "cell-based, Pseudomonas aeruginosa", "details": "in FdUrd+trimethoprim+uridine combination"}, "S. aureus EN008": {"system": "S. aureus EN008", "experiment": "MIC", "format": "cell-based, Staphylococcus aureus", "details": "in FdUrd+trimethoprim+uridine combination"}, "E. coli EN0137": {"system": "E. coli EN0137", "experiment": "MIC", "format": "cell-based", "details": "in FdUrd+trimethoprim+uridine combination"}, "K. pneumoniae EN0249": {"system": "K. pneumoniae EN0249", "experiment": "MIC", "format": "cell-based", "details": "in FdUrd+trimethoprim+uridine combination"}, "M. luteus EN0455": {"system": "M. luteus EN0455", "experiment": "MIC", "format": "cell-based, Micrococcus luteus", "details": "in FdUrd+trimethoprim+uridine combination"}, "K. pneumoniae EN0145": {"system": "K. pneumoniae EN0145", "experiment": "MIC", "format": "cell-based", "details": "in FdUrd+trimethoprim+uridine combination"}, "E. coli EN0139": {"system": "E. coli EN0139", "experiment": "MIC", "format": "cell-based", "details": "in FdUrd+trimethoprim+uridine combination"}, "K. pneumoniae EN0262": {"system": "K. pneumoniae EN0262", "experiment": "MIC", "format": "cell-based", "details": "in FdUrd+trimethoprim+uridine combination"}, "E. coli EN0235": {"system": "E. coli EN0235", "format": "cell-based"}, "E. coli EN003": {"system": "E. coli EN003", "experiment": "MIC", "format": "cell-based, Escherichia coli", "details": "in FdUrd+trimethoprim+uridine combination"}, "Citrobacter sp. EN0465": {"system": "Citrobacter sp. EN0465", "experiment": "MIC", "format": "cell-based", "details": "in FdUrd+trimethoprim+uridine combination"}, "A. baumannii EN016": {"system": "A. baumannii EN016", "experiment": "MIC", "format": "cell-based, Acinetobacter baumannii", "details": "in FdUrd+trimethoprim+uridine combination"}, "K. pneumoniae EN0142": {"system": "K. pneumoniae EN0142", "experiment": "MIC", "format": "cell-based", "details": "in FdUrd+trimethoprim+uridine combination"}}, "note": "Read-outs that look alike come from different tables or passages of the source.", "data": [{"smiles": "COc1cc(Cc2cnc(N)nc2N)cc(OC)c1OC", "note": "[Trimethoprim, trimethoprim]", "values": [{"measurement": "MIC", "setting": "S. aureus strain no 13", "value": "< 32", "unit": "µg/mL"}, {"measurement": "MIC", "setting": "E. coli ATCC 25922; ATCC25922, read-out: MIC against E. coli ATCC 25922, Plate C: TMP alone", "value": 0.5, "unit": "µg/mL"}, {"measurement": "MIC", "setting": "E. coli ATCC 25922; ATCC25922, read-out: MIC against E. coli ATCC 25922, Plate F: TMP with 2 μg/ml thymidine", "value": 1, "unit": "µg/mL"}, {"measurement": "MIC", "setting": "E. coli ATCC 25922; ATCC25922, read-out: MIC against E. coli ATCC 25922: TMP, Plate A: AZT + TMP with 50 μg/ml uridine", "value": 0.06, "unit": "µg/mL"}, {"measurement": "MIC", "setting": "E. coli ATCC 25922; ATCC25922, read-out: MIC against E. coli ATCC 25922: TMP, Plate D: AZT + TMP with 50 μg/ml uridine and 2 μg/ml thymidine", "value": 0.5, "unit": "µg/mL"}]}, {"smiles": "O=c1[nH]c(=O)n([C@H]2C[C@H](O)[C@@H](CO)O2)cc1F", "note": "[FdUrd]", "values": [{"measurement": "MIC", "setting": "P. aeruginosa EN0459", "value": ">4", "unit": "µg/mL"}, {"measurement": "MIC", "setting": "K. pneumoniae EN0244", "value": ">4", "unit": "µg/mL"}, {"measurement": "MIC", "setting": "E. coli EN0136", "value": 1, "unit": "µg/mL"}, {"measurement": "MIC", "setting": "P. aeruginosa EN0460", "value": ">4", "unit": "µg/mL"}, {"measurement": "MIC", "setting": "K. pneumoniae EN0437", "value": ">4", "unit": "µg/mL"}, {"measurement": "MIC", "setting": "K. pneumoniae EN0144", "value": ">4", "unit": "µg/mL"}, {"measurement": "MIC", "setting": "E. coli EN0138", "value": 0.25, "unit": "µg/mL"}, {"measurement": "MIC", "setting": "K. pneumoniae EN0143", "value": ">4", "unit": "µg/mL"}, {"measurement": "MIC", "setting": "P. aeruginosa EN0422", "value": ">4", "unit": "µg/mL"}, {"measurement": "MIC", "setting": "E. coli EN0135", "value": 0.25, "unit": "µg/mL"}, {"measurement": "MIC", "setting": "A. baumannii EN007", "value": ">4", "unit": "µg/mL"}, {"measurement": "MIC", "setting": "P. aeruginosa EN005", "value": 0.25, "unit": "µg/mL"}, {"measurement": "MIC", "setting": "P. aeruginosa EN004", "value": ">4", "unit": "µg/mL"}, {"measurement": "MIC", "setting": "S. aureus EN008", "value": "<8", "unit": "ng/mL"}, {"measurement": "MIC", "setting": "E. coli EN0137", "value": ">4", "unit": "µg/mL"}, {"measurement": "MIC", "setting": "K. pneumoniae EN0249", "value": ">4", "unit": "µg/mL"}, {"measurement": "MIC", "setting": "M. luteus EN0455", "value": 2, "unit": "µg/mL"}, {"measurement": "MIC", "setting": "K. pneumoniae EN0145", "value": ">4", "unit": "µg/mL"}, {"measurement": "MIC", "setting": "E. coli EN0139", "value": 0.5, "unit": "µg/mL"}, {"measurement": "MIC", "setting": "K. pneumoniae EN0262", "value": 2, "unit": "µg/mL"}, {"measurement": "MIC", "setting": "E. coli EN0235", "value": 0.06, "unit": "µg/mL"}, {"measurement": "MIC", "setting": "E. coli EN003", "value": 0.016, "unit": "µg/mL"}, {"measurement": "MIC", "setting": "Citrobacter sp. EN0465", "value": ">4", "unit": "µg/mL"}, {"measurement": "MIC", "setting": "A. baumannii EN016", "value": 4, "unit": "µg/mL"}, {"measurement": "MIC", "setting": "K. pneumoniae EN0142", "value": 0.125, "unit": "µg/mL"}]}]}
